Where a name gives a salt, the structure may show the parent alone.
What was measured:
[1] = molecular target: T1, human S1P5 receptor (Homo sapiens, UniProt Q9H228); assay: In vitro functional activity (agonism), CHO-human-S1P5-Aequorin assay; type: cell-based; conditions: for EC50: read-out: S1P5 pEC50 (converted)
T1 construct: host or cells: CHO (AequoScreen recombinant cell line, co-expressing mitochondrially targeted apo-aequorin)
From the text: In Vitro Functional Activity (Agonism) on Human S1P5 Receptors
(§1) The CHO-human-S1P5-Aeqorin assay was bought from Euroscreen, Brussels (Euroscreen, Technical dossier, Human Lysophospholid S1P5 (Edg8) receptor, DNA clone and CHO AequoScreen™ recombinant cell-line, catalog no: ES-593-A, September 2006). Human-S1P5-Aequorin cells express mitochondrial targeted apo-Aequorin. Cells have to be loaded with coelanterazine, in order to reconstitute active Aequorin. After binding of agonists to the human S1P5 receptor the intracellular calcium concentration increases and binding of calcium to the apo-Aequorin/coelenterazine complex leads to an oxidation reaction of coelenterazine, which results in the production of apo-Aequorin, coelenteramide, CO2 and light (λmax 469 nm). This luminescent response is dependent on the agonist concentration. Luminescence is measured using the MicroBeta Jet (Perkin Elmer). Agonistic effects of compounds are expressed as pEC50. Compounds were tested at a 10 points half log concentration range, and 3 independent experiments were performed in single point's measurements.

[2] = molecular target: T2, human S1P3 receptor (Homo sapiens, UniProt Q99500); assay: In vitro functional activity (agonism), CHO-human-S1P3-Aequorin assay; type: cell-based; conditions: for EC50: read-out: S1P3 pEC50 (converted)
T2 construct: cell line established at Solvay Pharmaceuticals; host or cells: CHO K1 (CHO/Gα16/AEQ/h-S1P3)
T2 sequence (Q99500 whole entry): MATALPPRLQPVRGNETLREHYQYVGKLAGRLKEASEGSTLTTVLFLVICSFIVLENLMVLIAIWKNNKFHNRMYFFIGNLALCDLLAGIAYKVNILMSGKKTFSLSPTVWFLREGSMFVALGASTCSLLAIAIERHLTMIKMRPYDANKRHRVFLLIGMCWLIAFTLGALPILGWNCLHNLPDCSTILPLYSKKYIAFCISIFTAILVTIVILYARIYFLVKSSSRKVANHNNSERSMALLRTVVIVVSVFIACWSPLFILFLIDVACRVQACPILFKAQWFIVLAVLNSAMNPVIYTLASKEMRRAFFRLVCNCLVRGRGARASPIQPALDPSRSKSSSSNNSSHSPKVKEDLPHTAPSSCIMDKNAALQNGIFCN
From the text: In Vitro Functional Activity (Agonism) on Human S1P3 Receptors
The CHO-human-S1P3-Aeqorin assay (CHO/Gα16/AEQ/h-S1P3) was established at Solvay Pharmaceuticals. The plasmid DNA coding for the S1P3 receptor (accession number in GenBank NM_005226 was purchased from UMR cDNA resource Centre (Rolla, Mo.). The pcDNA3.1/hS1P3 construct carrying the mitochondrially targeted apo-Aeqorin and Gα16 protein was transfected in CHO K1 cell-line.
as §1, with “Human-S1P3-Aequorin” for “The CHO-human-S1P5-Aeqorin assay was bought from Euroscreen, Brussels (Euroscreen, Technical dossier, Human Lysophospholid S1P5 (Edg8) receptor, DNA clone and CHO AequoScreen™ recombinant cell-line, catalog no: ES-593-A, September 2006). Human-S1P5-Aequorin”, “S1P3” for “S1P5”

[3] = molecular target: T3, human S1P1 (Homo sapiens, UniProt P21453); assay: In vitro functional activity (agonism), CHO-K1-human S1P1 cAMP assay; type: cell-based; conditions: read-out: S1P1 pEC50 (converted)
T3 construct: host or cells: CHO-K1
T3 sequence (P21453 whole entry): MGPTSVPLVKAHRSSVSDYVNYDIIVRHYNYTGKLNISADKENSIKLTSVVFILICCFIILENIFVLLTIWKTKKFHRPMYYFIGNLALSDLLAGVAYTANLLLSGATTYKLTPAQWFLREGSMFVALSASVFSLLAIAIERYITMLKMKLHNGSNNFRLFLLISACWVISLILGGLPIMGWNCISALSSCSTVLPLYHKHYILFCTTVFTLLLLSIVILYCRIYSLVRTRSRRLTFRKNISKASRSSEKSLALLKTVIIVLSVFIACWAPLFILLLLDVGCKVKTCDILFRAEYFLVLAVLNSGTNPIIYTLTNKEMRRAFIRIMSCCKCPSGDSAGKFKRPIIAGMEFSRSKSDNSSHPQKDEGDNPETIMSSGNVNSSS
Experimental: In Vitro Functional Activity (Agonism) on Human S1P1 Receptors
The CHO-K1-Human S1P1-c-AMP assay was performed at Euroscreenfast, Brussels (Euroscreen, Human S1P1 coupling Gi/o), (Edg1) receptor, catalog no: FAST-0197C, December 2009).
Recombinant CHO-K1 cells expressing human S1P1, grown to mid-log Phase in culture media without antibiotics, detached, centrifuged and re-suspended. For agonist testing cells are mixed with compound and Forskolin and incubated at room temperature. Cells are lyses and cAMP concentration are estimated, according to the manufacturer specification, With the HTRF kit from CIS-BIO International (cat no 62AM2PEB).
Agonistic effects of compounds are expressed as a percentage of the activity of the reference compound at its EC100 concentration, EC50) is calculated and results are reported as pEC50. Compounds were tested at a 10 points half log concentration range duplicated in 1 experiment.

T1 sequence (Q9H228 whole entry): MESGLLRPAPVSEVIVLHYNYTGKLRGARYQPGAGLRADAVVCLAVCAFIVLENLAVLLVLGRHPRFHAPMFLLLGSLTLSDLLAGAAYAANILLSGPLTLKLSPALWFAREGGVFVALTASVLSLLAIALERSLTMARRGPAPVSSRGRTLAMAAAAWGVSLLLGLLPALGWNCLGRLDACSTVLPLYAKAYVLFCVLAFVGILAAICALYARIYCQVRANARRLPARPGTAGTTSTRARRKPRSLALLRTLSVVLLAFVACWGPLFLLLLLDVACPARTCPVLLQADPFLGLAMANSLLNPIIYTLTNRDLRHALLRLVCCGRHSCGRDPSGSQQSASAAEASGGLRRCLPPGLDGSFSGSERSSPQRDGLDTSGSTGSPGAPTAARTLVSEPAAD

Compound	EC50 [1]	EC50 [2]	S1P5 pEC50 [1]	S1P3 pEC50 [2]	melting point	EC50 [3]
CCCCCCCCOc1ccc(C2CN(CCC(=O)O)C(C)(C)CO2)cc1 (stereo not shown) [Compound 187, 3-[5,5-Dimethyl-2-(4-octyloxy-phenyl)-morpholin-4-yl]-propionic acid hydrochloride]	794 nM	3.16 µM				
3-{2-[4-(2,6-Dichloro-benzyloxy)-phenyl]-morpholin-4-yl}-2,2-di-fluoro-propionic acid triethylammonium salt [Compound 150]			6.2	<5.0		
CCCc1ncc(OCCCOc2ccc(C3CN(CCC(=O)O)CCO3)cc2)s1 (stereo not shown) [Compound 3, 3-(2-{4-[3-(2-Propyl-thiazol-5-yloxy)-propoxy]-phenyl}-morpholin-4-yl)-propionic acid trifluoroacetic acid salt]	10000 nM	15.8 µM				
O=C(O)CCN1CCOC(c2ccc(OCCCc3ccccc3)cc2)C1 (stereo not shown) [Compound 16, 3-{2-[4-(3-Phenyl-propoxy)-phenyl]-morpholin-4-yl}-propionic acid trifluoroacetic acid salt]	1000 nM	3.98 µM				
CCCCCCCCOc1ccc(C2CN(CCC(=O)O)CCO2)c(C(F)(F)F)c1.Cl (stereo not shown) [Compound 189, 3-[2-(4-Octyloxy-2-trifluoromethyl-phenyl)-morpholin-4-yl]-propionic acid hydrochloride]	158 nM	1.58 µM			178.5 to 180.5 °C	1.58 µM
O=C(O)CCN1CCOC(c2ccc(OCc3c(Cl)cccc3C(F)(F)F)cc2)C1 (stereo not shown) [Compound 153, 3-{2-[4-(2-Chloro-6-trifluoromethyl-benzyloxy)-phenyl]-morpholin-4-yl}-propionic acid hydrochloride]	100 nM	> 10 µM				> 3.16 µM
Cc1cc(C2CN(CCC(=O)O)CCO2)ccc1OCc1c(F)cccc1Cl (stereo not shown) [Compound 144, 3-{2-[4-(2-Chloro-6-fluoro-benzyloxy)-3-methyl-phenyl]-morpholin-4-yl}-propionic acid hydrochloride]	631 nM	> 10 µM				
CCc1cc(Cl)c(COc2ccc(C3CN(CCC(=O)O)CCO3)cc2)c(Cl)c1 (stereo not shown) [Compound 164, 3-{2-[4-(2,6-Dichloro-4-ethyl-benzyloxy)-phenyl]-morpholin-4-yl}-propionic acid hydrochloride]	316 nM	2 µM				
CCCCc1ccc(COc2ccc(C3CN(CCC(=O)O)CCO3)c(C)c2)cc1 (stereo not shown) [Compound 117, 3-{2-[4-(4-Butyl-benzyloxy)-2-methyl-phenyl]-morpholin-4-yl}-propionic acid]	3980 nM	> 10 µM				
Cc1cc(OCc2ccc3ccccc3c2)ccc1C1CN(CCC(=O)O)CCO1 (stereo not shown) [Compound 76, 3-{2-[2-Methyl-4-(naphthalen-2-ylmethoxy)-phenyl]-morpholin-4-yl}-propionic acid]	2510 nM	> 10 µM				
CCCCCCCCOc1ccc(C2CN(CCP(=O)(O)O)CCO2)cc1 (stereo not shown) [Compound 137, {2-[2-(4-Octyloxy-phenyl)-morpholin-4-yl]-ethyl}-phosphonic acid]	100 nM	0.501 µM				
Cc1cc(OCc2cccc(Oc3ccccc3)c2)ccc1C1CN(CCC(=O)O)CCO1 (stereo not shown) [Compound 92, 3-{2-[2-Methyl-4-(3-phenoxy-benzyloxy)-phenyl]-morpholin-4-yl}-propionic acid]	5010 nM	> 10 µM				
CCCCCCCCOc1cccc(C2CN(CCC(=O)O)CCO2)c1.Cl (stereo not shown) [Compound 231, 3-[2-(3-Octyloxy-phenyl)-morpholin-4-yl]-propionic acid hydrochloride]	251 nM	> 10 µM			218 to 220 °C	
O=C(O)CCN1CCOC(c2ccc(OCCCc3cccc(F)c3F)cc2)C1 (stereo not shown) [Compound 174, 3-(2-{4-[3-(2,3-Difluoro-phenyl)-propoxy]-phenyl}-morpholin-4-yl)-propionic acid hydrochloride]	1580 nM	5.01 µM				
Cc1cc(OCc2ccc(C(C)(C)C)cc2)ccc1C1CN(CCC(=O)O)CCO1 (stereo not shown) [Compound 127, 3-{2-[4-(4-tert-Butyl-benzyloxy)-2-methyl-phenyl]-morpholin-4-yl}-propionic acid]	631 nM	> 10 µM				
Cc1cc(OCc2cccc(OCc3ccccc3)c2)ccc1C1CN(CCC(=O)O)CCO1 (stereo not shown) [Compound 100, 3-{2-[4-(3-Benzyloxy-benzyloxy)-2-methyl-phenyl]-morpholin-4-yl}-propionic acid]	3980 nM	> 10 µM				
Cc1cc(OCC2CCC3CC2C3(C)C)ccc1C1CN(CCC(=O)O)CCO1 (stereo not shown) [Compound 84, 3-{2-[4-(6,6-Dimethyl-bicyclo[3.1.1]hept-2-ylmethoxy)-2-methyl-phenyl]-morpholin-4-yl}-propionic acid]	3980 nM	> 10 µM				
COc1cc(C2CN(CCC(=O)O)CCO2)ccc1OCc1ccccc1C(F)(F)F.Cl (stereo not shown) [Compound 66, 3-{2-[3-Methoxy-4-(2-trifluoromethyl-benzyloxy)-phenyl]-morpholin-4-yl}-propionic acid hydrochloride]	631 nM	> 10 µM			170 to 172 °C	
O=C(O)CCN1CCOC(c2ccc(OCc3c(Cl)cccc3Cl)c(C(F)(F)F)c2)C1 (stereo not shown) [Compound 131, 3-{2-[4-(2,6-Dichloro-benzyloxy)-3-trifluoromethyl-phenyl]-morpholin-4-yl}-propionic acid trifluoroacetic acid salt]	1000 nM	> 10 µM				
O=C(O)CCN1CCOC(c2ccc(OCC3CCCCC3)cc2)C1 (stereo not shown) [Compound 24, 3-[2-(4-Cyclohexylmethoxy-phenyl)-morpholin-4-yl]-propionic acid trifluoroacetic acid salt]	631 nM	> 31.6 µM				
O=C(O)CCN1CCOC(c2ccc(C(=O)Nc3c(Cl)cccc3Cl)cc2)C1 (stereo not shown) [Compound 53, 3-{2-[4-(2,6-Dichloro-phenylcarbamoyl)-phenyl]-morpholin-4-yl}-propionic acid hydrochloride]	2000 nM	> 10 µM				
CCCCCCCCOc1ccc(C2CN(CCC(=O)O)CCO2)cc1 (stereo not shown) [Compound 41, 3-(2-(4-Octyloxy-phenyl)-morpholin-4-yl)-propionic acid hydro-chloride]	251 nM	2.51 µM				> 3.16 µM
Clc1cccc(Cl)c1COc1ccc(C2CN(CCc3nn[nH]n3)CCO2)cc1 (stereo not shown) [Compound 228, 2-[4-(2,6-Dichloro-benzyloxy)-phenyl]-4-[2-(2H-tetrazol-5-yl)-ethyl]-morpholine hydrochloride]	158 nM	> 10 µM				> 3.16 µM
O=C(O)CCN1CCOC(c2ccc(OCc3c(Cl)cccc3Cl)cc2)C1 (single isomer, unassigned; (+)) [Compound 34a, (+)-3-{2-[4-(2,6-Dichloro-benzyloxy)-phenyl]-morpholin-4-yl}-propionic acid hydrochloride]	631 nM	> 31.6 µM				
Cc1cccc2c1C(Oc1ccc(C3CN(CCC(=O)O)CCO3)cc1)CC2 (stereo not shown) [Compound 220, 3-{2-[4-(7-Methyl-indan-1-yloxy)-phenyl]-morpholin-4-yl}-propionic acid]	158 nM	0.251 µM			134 to 139 °C	
Cc1cc(OCc2c(Cl)cccc2Cl)ccc1C1CN(CCC(=O)O)CCO1 (stereo not shown) [Compound 130, 3-{2-[4-(2,6-Dichloro-benzyloxy)-2-methyl-phenyl]-morpholin-4-yl}-propionic acid trifluoroacetic acid salt]	79.4 nM	> 31.6 µM				> 3.16 µM

Source: patent publication US9273017B2, “(Thio)morpholine derivatives as S1P modulators” (ABBVIE BAHAMAS LIMITED, priority 2009, dated 2016)
